Measurements: PMC6979384, “Characterization of the plant homeodomain (PHD) reader family for their histone tail interactions” (Epigenetics & Chromatin, 2020)
Entries after “also recorded” stand apart in the source; their conditions may differ. Like-named read-outs stand apart in the source and are kept apart here.

How the values were obtained:
DIDO1 = test: dCypher AlphaScreen Phase B (full peptide screen); type: binding, human; settings: reader 0.1 nM, 100 nM peptide, 23 °C, n = 2
Procedure: (§1) X-axes are log(protein concentration (M)) at constant peptide concentration (100 nM); Y-axes are AlphaScreen counts, representing relative strength of binding (n = 2; error bars are S.D.). i Heat map represents relative binding to H3 N-terminal peptides (left) by PHD-containing GST-tagged proteins (top) using the dCypher AlphaScreen platform. Protein concentrations can be found in Additional file 5: Table S4. Binding strength is indicated by color gradient from green to yellow (stronger to weaker). […] Alpha counts (n = 2) were normalized individually for each protein to the highest signal for each respective assay. For full dCypher peptide screen data, see Additional file 4: Table S3
(§2) Once the optimal protein concentration ranges for each of the eight readers were determined, we conducted the full dCypher peptide screen (293 histone peptides) (Fig. 3i; Additional file 4: Table S3).
(§3) The dCypher peptide screen assay was performed as previously described. Briefly, 5 μL of GST-tagged reader domains (optimal protein concentration for library screening determined by initial binding curves to candidate peptides) were incubated with 5 μL of 400 nM (100 nM Final) biotinylated histone peptides (EpiCypher) for 30 min at 23 °C in 1× AlphaLISA Epigenetics buffer + epigenetics buffer supplement (PerkinElmer, AL1008) in a 384-well plate. A 10 μL mix of 5 µg/mL (2.5 μg/mL final) glutathione Acceptor beads (PerkinElmer, AL109M) and 10 μg/mL (5 μg/mL final) streptavidin Donor beads (PerkinElmer, 6760002) was prepared in 1× [Epigenetics buffer + supplement] and added to each well. Plates were incubated at 23 °C in subdued lighting for 60 min and AlphaLISA signal measured on a PerkinElmer 2104 EnVision (680 nm laser excitation, 570 nm emission filter ± 50 nm bandwidth).
(§4) Supplementary file 13072_2020_328_MOESM4_ESM.xlsx: Additional file 4: Table S3. dCypher Results. Excel Tab Peptide Phase A is a compiled set of binding data: chromatin reader titration vs. several peptide targets. Data is presented as raw Alpha counts in duplicates at each concentration tested. Excel Tab Peptide Phase B is a compiled set of binding data: chromatin reader at optimized concentrations vs. entire 293 peptide library. Data is presented as the average and standard deviation of duplicates. […] Key: red = strong binding; blue = weak/no binding.

MLL5 = test: dCypher AlphaScreen Phase B (full peptide screen); type: binding, human; settings: reader 0.02 nM, 100 nM peptide, 23 °C, n = 2
Procedure: as §1, §2, §3, §4

KDM7A = test: dCypher AlphaScreen Phase B (full peptide screen); type: binding, human; settings: reader 0.15 nM, 100 nM peptide, 23 °C, n = 2
Procedure: as §1, §2, §3, §4

PHD finger of MLL5 = settings: cited from earlier work
Excerpt: Our findings from domain and peptide microarray confirm the reported binding preferences of many PHD proteins such as those of the ING and PHF families. […] We surmise that the basis of this differenc ...

CHD5 (PCC) = test: PHD finger domain microarray; type: binding, human
Excerpt: (§5) To define the histone binding preferences of the PHD finger proteome, we expressed and purified 123 annotated human PHD-containing domains as GST-tagged recombinant fusions from E. coli. The recombinant proteins consisted of either PHD fingers in isolation, or as tandem domains if a given PHD finger was located adjacent to another reader domain (e.g., one or more PHD fingers, Tudor, chromo and/or bromodomains) (Additional file 1: Table S1). These GST fusions were printed in duplicate on nitrocellulose-coated microarray slides and probed with biotinylated peptides that represented the N-termini of H3, H4, H2A or H2B (Fig. 1a and Additional file 2: Figure S1). As the majority of PHD readers thus far characterized are H3K4me0/3 readers, we included additional peptides (H3K4 as either mono-, di-, or trimethylated) to further determine any H3K4 methyl preference (Additional file 2: Figure S2 and Fig. 1b). As a control, we also probed these microarrays with an α-Tubulin peptide (a.a. 30–50) that would not be predicted to interact with PHD fingers (Additional file 2: Figure S1). […] We also cannot exclude the possibility that some PHD fingers might not be functionally active on the microarrays (perhaps due to misfolding or the lack of an important adjacent region).
(§6) The protein domain microarray was designed to include 123 GST-tagged PHD-domain containing recombinant proteins. Protein domain microarray development and probing was as previously. Briefly, recombinant proteins were synthesized and cloned into pGEX-4T-1 vector by Biomatik Corporation. These GST-PHD readers were subsequently expressed, purified, and spotted in duplicate onto nitrocellulose-coated glass slides (Oncyte Avid slides, Grace Bio-Labs) using a pin arrayer (Aushon 2470, Aushon). For probing, microarray slides were blocked with 3% milk, 3% bovine serum albumin, 0.1% Tween 20 in PBS. Biotinylated peptides were pre-labeled with streptavidin-Cy3 fluorophore (GE Healthcare) and incubated with the blocked array slides. Slides were then washed with PBST and allowed to air dry. Fluorescent interactions were visualized using a GenePix 4200A Microarray Scanner (Molecular Devices).

MLL5 PHD finger = test: PHD finger domain microarray; type: binding, human
Excerpt: as §5, §6

KDM5B (PHD3) = test: PHD finger domain microarray; type: binding, human
Excerpt: as §5, §6

PHRF1 (RP) = test: PHD finger domain microarray; type: binding, human
Excerpt: as §5, §6

H3K4me0 readers = test: dCypher AlphaScreen Phase B (full peptide screen), H3K4me0 readers together; type: binding, human; settings: 100 nM peptide, 23 °C, n = 2
Procedure: Fig. 3 dCypher histone peptide-binding assays define the PTM recognition preference of PHD proteins with high sensitivity. a–h Binding curves to determine optimal reader protein concentration for full peptide library screening on the dCypher® AlphaScreen® platform (see “Methods”). X-axes are log(protein concentration (M)) at constant peptide concentration (100 nM); Y-axes are AlphaScreen counts, representing relative strength of binding (n = 2; error bars are S.D.). i Heat map represents relative binding to H3 N-terminal peptides (left) by PHD-containing GST-tagged proteins (top) using the dCypher AlphaScreen platform. Protein concentrations can be found in Additional file 5: Table S4. […]
as §2
The dCypher peptide screen assay was performed as previously described. Briefly, 5 μL of GST-tagged reader domains (optimal protein concentration for library screening determined by initial binding curves to candidate peptides) were incubated with 5 μL of 400 nM (100 nM Final) biotinylated histone peptides (EpiCypher) for 30 min at 23 °C in 1× AlphaLISA Epigenetics buffer + epigenetics buffer supplement (PerkinElmer, AL1008) in a 384-well plate. […]

CHD4 (PPCC) = test: dCypher AlphaScreen Phase B (full peptide screen); type: binding, human; settings: reader 0.65 nM, 100 nM peptide, 23 °C, n = 2
Procedure: as §1, §2, §3, §4

DPF2 (PPC2W2) = test: dCypher AlphaScreen Phase B (full peptide screen); type: binding, human; settings: reader 0.1 nM, 100 nM peptide, 23 °C, n = 2
Procedure: as §1, §2, §3, §4

binding preference (CHD5 (PCC)) | binding preference (MLL5 PHD finger) | Substance | reported binding (PHD finger of MLL5) | binding preference (KDM5B (PHD3)) | binding (CHD4 (PPCC)) | other results
– | – | H3K4me1: H3 1-20 [Peptide H3K4me1] | – | – | – | binding (DIDO1): also identified interaction of these domains with the H3K4me1 peptide; binding (MLL5): also identified interaction of these domains with the H3K4me1 peptide
no preference | strong preference | H3K4me3: H3 1-20 [Peptide H3K4me3] | discrepancies in whether the PHD finger of MLL5 is a H3K4me3 or H3K4me2 reader | consistent with their current classification as H3K4me3 binders; also recorded: no preference | – | binding (KDM7A): reader of H3K4me3; binding preference (PHRF1 (RP)): no preference
– | – | H3S10p: H3 1-20 [Peptide H3S10p] | – | – | – | loss of binding on S10 phosphorylation (H3K4me0 readers): this phenomenon is also observed
– | – | H3K9me3: H3 1-20 [Peptide H3K9me3] | – | – | ability to bind to the peptides containing H3K9me3 | binding (DPF2 (PPC2W2)): ability to bind to the peptides containing H3K9me3
no preference | – | H3 (1-20): unmodified H3 N-terminal peptide (1–20) | – | no preference | clearer specificity for the H3K4me0 peptide over the methylated species | binding preference (PHRF1 (RP); listed as H3K4me0): no preference on the domain array; binding preference (PHRF1 (RP); listed as unmodified H3 tail): readers of the unmodified H3 tail
– | strong preference | H3K4me2: H3 1-20 [Peptide H3K4me2] | discrepancies in whether the PHD finger of MLL5 is a H3K4me3 or H3K4me2 reader | – | – | –
